EC50 data for 24 molecules are collected here from patent US11254663B2 (BRISTOL-MYERS SQUIBB COMPANY, priority 2019, dated 2022).

FXR, sequence (Q96RI1 262-486): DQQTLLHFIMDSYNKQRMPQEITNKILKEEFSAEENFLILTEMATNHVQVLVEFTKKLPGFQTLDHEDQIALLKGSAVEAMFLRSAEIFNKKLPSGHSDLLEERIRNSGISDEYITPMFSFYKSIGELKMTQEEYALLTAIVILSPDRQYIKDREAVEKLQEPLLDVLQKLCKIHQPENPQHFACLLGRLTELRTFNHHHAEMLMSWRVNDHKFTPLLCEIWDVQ

This test concerns the target FXR (Homo sapiens (Human), UniProt Q96RI1). Kind of test: FXR EC50 (FXR agonist potency reported with each Example). It counts as cell-based.
One may read the EC50 as the midpoint of the concentration-response curve. High values mean weaker potency, low ones greater potency. `O=C(N(CC12CCC(c3ccc(C(F)(F)F)cn3)(CC1)CC2)c1cccc(-c2noc(C(F)F)n2)c1)C12CC(F)(C1)C2` [Example 189, N-(3-(5-(difluoromethyl)-1,2,4-oxadiazol-3-yl)phenyl)-3-fluoro-N-((4-(5-(trifluoromethyl)pyridin-2-yl)bicyclo[2.2.2]octan-1-yl)methyl)bicyclo[1.1.1]pentane-1-carboxamide] returned an EC50 of 691 nM.

`CC(F)(F)c1nc(-c2cccc(N(CC34CCC(c5ccc(C(F)(F)F)cn5)(CC3)CC4)C(=O)C34CC(F)(C3)C4)c2)no1` [Example 190, N-(3-(5-(1,1-difluoroethyl)-1,2,4-oxadiazol-3-yl)phenyl)-3-fluoro-N-((4-(5-(trifluoromethyl)pyridin-2-yl)bicyclo[2.2.2]octan-1-yl)methyl)bicyclo[1.1.1]pentane-1-carboxamide] had an EC50 of 281 nM. This EC50 is about 2.5-fold lower than that of the molecule before.

For `CC1(C(=O)N(CC23CCC(c4nc(C(C)(C)C)no4)(CC2)CC3)c2cccc(-c3nc(C4CC4)no3)c2)COC1` [Example 191, N-((4-(3-(tert-butyl)-1,2,4-oxadiazol-5-yl)bicyclo[2.2.2]octan-1-yl)methyl)-N-(3-(3-cyclopropyl-1,2,4-oxadiazol-5-yl)phenyl)-3-methyloxetane-3-carboxamide], the response was half-maximal at 824 nM (EC50).

In the case of `CO[C@H]1C[C@@H](C(=O)N(CC23CCC(c4nc(C(C)(C)C)no4)(CC2)CC3)c2cccc(-c3nc(C4CC4)no3)c2)C1` [Example 192, (1S,3S)—N-((4-(3-(tert-butyl)-1,2,4-oxadiazol-5-yl)bicyclo[2.2.2]octan-1-yl)methyl)-N-(3-(3-cyclopropyl-1,2,4-oxadiazol-5-yl)phenyl)-3-methoxycyclobutane-1-carboxamide], the EC50 was found to be 449 nM.

As to `CC(C)(C)c1noc(C23CCC(CN(C(=O)C4CN(C(=O)C(F)(F)F)C4)c4cccc(-c5nc(C6CC6)no5)c4)(CC2)CC3)n1` [Example 193, N-((4-(3-(tert-butyl)-1,2,4-oxadiazol-5-yl)bicyclo[2.2.2]octan-1-yl)methyl)-N-(3-(3-cyclopropyl-1,2,4-oxadiazol-5-yl)phenyl)-1-(2,2,2-trifluoroacetyl)azetidine-3-carboxamide], the EC50 amounted to 4870 nM.

Molecule `CC(C)(C)c1nc(C23CCC(CN(C(=O)C45CC(F)(C4)C5)c4cccc(-c5cnn(S(C)(=O)=O)c5)c4)(CC2)CC3)no1` [Example 194, N-((4-(5-(tert-butyl)-1,2,4-oxadiazol-3-yl)bicyclo[2.2.2]octan-1-yl)methyl)-3-fluoro-N-(3-(1-(methylsulfonyl)-1H-pyrazol-4-yl)phenyl)bicyclo[1.1.1]pentane-1-carboxamide] returned an EC50 of 16 nM.

For `CC(C)(C)c1nc(C23CCC(CN(C(=O)C45CC(F)(C4)C5)c4cccc(-c5cnn(S(=O)(=O)C6CC6)c5)c4)(CC2)CC3)no1` [Example 195, N-((4-(5-(tert-butyl)-1,2,4-oxadiazol-3-yl)bicyclo[2.2.2]octan-1-yl)methyl)-N-(3-(1-(cyclopropylsulfonyl)-1H-pyrazol-4-yl)phenyl)-3-fluorobicyclo[1.1.1]pentane-1-carboxamide], the midpoint of the response, the EC50, lay at 20 nM.

In turn, `O=C(N(CC12CCC(c3nc(C4CC4)no3)(CC1)OC2)c1cccc(-c2nc(C3CC3)no2)c1)C12CC(F)(C1)C2` [Example 196, N-((1-(3-cyclopropyl-1,2,4-oxadiazol-5-yl)-2-oxabicyclo[2.2.2]octan-4-yl)methyl)-N-(3-(3-cyclopropyl-1,2,4-oxadiazol-5-yl)phenyl)-3-fluorobicyclo[1.1.1]pentane-1-carboxamide] showed an EC50 of 205 nM.

As for `O=C(C1CC(F)(F)C1)N(CC12CCC(c3nc(C4CC4)no3)(CC1)OC2)c1cccc(-c2nc(C3CC3)no2)c1` [Example 197, N-((1-(3-cyclopropyl-1,2,4-oxadiazol-5-yl)-2-oxabicyclo[2.2.2]octan-4-yl)methyl)-N-(3-(3-cyclopropyl-1,2,4-oxadiazol-5-yl)phenyl)-3,3-difluorocyclobutane-1-carboxamide], the midpoint of the response, the EC50, lay at 965 nM.

In turn, `O=C(C1CC(C(F)F)C1)N(CC12CCC(c3nc(C4CC4)no3)(CC1)OC2)c1cccc(-c2nc(C3CC3)no2)c1` (stereo not drawn) [Example 198, N-((1-(3-cyclopropyl-1,2,4-oxadiazol-5-yl)-2-oxabicyclo[2.2.2]octan-4-yl)methyl)-N-(3-(3-cyclopropyl-1,2,4-oxadiazol-5-yl)phenyl)-3-(difluoromethyl)cyclobutane-1-carboxamide] registered an EC50 of 909 nM.

`O=C(N(CC12CCC(c3nc(C4CC4)no3)(CC1)OC2)c1cccc(-c2cc(C3CC3)on2)c1)C12CC(F)(C1)C2` [Example 199, N-((1-(3-cyclopropyl-1,2,4-oxadiazol-5-yl)-2-oxabicyclo[2.2.2]octan-4-yl)methyl)-N-(3-(5-cyclopropylisoxazol-3-yl)phenyl)-3-fluorobicyclo[1.1.1]pentane-1-carboxamide] registered an EC50 of 281 nM.

Molecule `O=C(C1CC(F)(F)C1)N(CC12CCC(c3nc(C4CC4)no3)(CC1)OC2)c1cccc(-c2cc(C3CC3)on2)c1` [Example 200, N-((1-(3-cyclopropyl-1,2,4-oxadiazol-5-yl)-2-oxabicyclo[2.2.2]octan-4-yl)methyl)-N-(3-(5-cyclopropylisoxazol-3-yl)phenyl)-3,3-difluorocyclobutane-1-carboxamide] gave an EC50 of 526 nM.

In the case of `O=C(C1CC(C(F)F)C1)N(CC12CCC(c3nc(C4CC4)no3)(CC1)OC2)c1cccc(-c2cc(C3CC3)on2)c1` (stereo not drawn) [Example 201, N-((1-(3-cyclopropyl-1,2,4-oxadiazol-5-yl)-2-oxabicyclo[2.2.2]octan-4-yl)methyl)-N-(3-(5-cyclopropylisoxazol-3-yl)phenyl)-3-(difluoromethyl)cyclobutane-1-carboxamide], the EC50 came to 384 nM.

Take `O=C(C1CCC(F)(F)C1)N(CC12CCC(c3nc(C4CC4)no3)(CC1)OC2)c1cccc(-c2cc(C3CC3)on2)c1` (stereo not drawn) [Example 202, N-((1-(3-cyclopropyl-1,2,4-oxadiazol-5-yl)-2-oxabicyclo[2.2.2]octan-4-yl)methyl)-N-(3-(5-cyclopropylisoxazol-3-yl)phenyl)-3,3-difluorocyclopentane-1-carboxamide]: the EC50 stood at 299 nM. This EC50 and that of the molecule before are within 1.5-fold of each other.

In turn, `O=C(N(CC12CCC(c3nc(C4CC4)no3)(CC1)OC2)c1cccc(-c2noc(C3CC3)n2)c1)C12CC(F)(C1)C2` [Example 203] came in with an EC50 of 74 nM.

Turning to `O=C(N(CC12CCC(c3nc(C4CC4)no3)(CC1)OC2)c1cccc(-c2noc(C(F)F)n2)c1)C12CC(F)(C1)C2` [Example 204, N-((1-(3-cyclopropyl-1,2,4-oxadiazol-5-yl)-2-oxabicyclo[2.2.2]octan-4-yl)methyl)-N-(3-(5-(difluoromethyl)-1,2,4-oxadiazol-3-yl)phenyl)-3-fluorobicyclo[1.1.1]pentane-1-carboxamide], it took 371 nM to reach a half-maximal effect (EC50).

Molecule `Cn1nc(C2CC2)cc1C12CCC(CN(C(=O)C34CC(F)(C3)C4)c3cncc(-c4nc(C5CC5)no4)c3)(CC1)CC2` [Example 205, N-(5-(3-cyclopropyl-1,2,4-oxadiazol-5-yl)pyridin-3-yl)-N-((4-(3-cyclopropyl-1-methyl-1H-pyrazol-5-yl)bicyclo[2.2.2]octan-1-yl)methyl)-3-fluorobicyclo[1.1.1]pentane-1-carboxamide] registered a concentration giving a half-maximal response (EC50) of 218 nM. This EC50 is about 1.7-fold lower than that of the molecule before.

Molecule `CC(C)(C)c1nc(C23CCC(CN(C(=O)C45CC(F)(C4)C5)c4cncc(-c5nc(C6CC6)no5)c4)(CC2)CC3)no1` [Example 206, N-((4-(5-(tert-butyl)-1,2,4-oxadiazol-3-yl)bicyclo[2.2.2]octan-1-yl)methyl)-N-(5-(3-cyclopropyl-1,2,4-oxadiazol-5-yl)pyridin-3-yl)-3-fluorobicyclo[1.1.1]pentane-1-carboxamide] returned an EC50 of 49 nM.

In turn, `CC(C)(C)c1noc(C23CCC(CN(C(=O)C45CC(F)(C4)C5)c4cncc(-c5nc(C6CC6)no5)c4)(CC2)CC3)n1` [Example 207, N-((4-(3-(tert-butyl)-1,2,4-oxadiazol-5-yl)bicyclo[2.2.2]octan-1-yl)methyl)-N-(5-(3-cyclopropyl-1,2,4-oxadiazol-5-yl)pyridin-3-yl)-3-fluorobicyclo[1.1.1]pentane-1-carboxamide] gave an EC50 of 571 nM. This EC50 lies about 12-fold higher than the previous one.

For the molecule `CC(C)(C)c1noc(C23CCC(CN(C(=O)C45CC(F)(C4)C5)c4cccc(-c5cnn(S(=O)(=O)C6CC6)c5)c4)(CC2)OC3)n1` [Example 208, N-((4-(3-(tert-butyl)-1,2,4-oxadiazol-5-yl)-2-oxabicyclo[2.2.2]octan-1-yl)methyl)-N-(3-(1-(cyclopropylsulfonyl)-1H-pyrazol-4-yl)phenyl)-3-fluorobicyclo[1.1.1]pentane-1-carboxamide], a half-maximal effect (EC50) was put at 618 nM. This EC50 and that of the molecule before are within 1.5-fold of each other.

`O=C(N(CC12CCC(c3noc(C4(C(F)(F)F)CC4)n3)(CC1)CC2)c1cccc(-c2cn[nH]c2)c1)C12CC(F)(C1)C2` [Example 209, N-(3-(1H-pyrazol-4-yl)phenyl)-3-fluoro-N-((4-(5-(1-(trifluoromethyl)cyclopropyl)-1,2,4-oxadiazol-3-yl)bicyclo[2.2.2]octan-1-yl)methyl)bicyclo[1.1.1]pentane-1-carboxamide]: the EC50 amounted to 152 nM.

As to `CC(C)(C)c1nc(C23CCC(CN(C(=O)C45CC(F)(C4)C5)c4cc(-c5nc(C6CC6)no5)ccn4)(CC2)CC3)no1` [Example 210, N-((4-(5-(tert-butyl)-1,2,4-oxadiazol-3-yl)bicyclo[2.2.2]octan-1-yl)methyl)-N-(4-(3-cyclopropyl-1,2,4-oxadiazol-5-yl)pyridin-2-yl)-3-fluorobicyclo[1.1.1]pentane-1-carboxamide], the EC50 was found to be 48 nM. Compared with the last molecule, the EC50 is about 3.2-fold lower.

Regarding `CC(C)(C)c1nc(C23CCC(CN(C(=O)C45CC(F)(C4)C5)c4cc(-c5cn[nH]c5)ccn4)(CC2)CC3)no1` [Example 211, N-(4-(1H-pyrazol-4-yl)pyridin-2-yl)-N-((4-(5-(tert-butyl)-1,2,4-oxadiazol-3-yl)bicyclo[2.2.2]octan-1-yl)methyl)-3-fluorobicyclo[1.1.1]pentane-1-carboxamide], the EC50 stood at 17 nM. This EC50 is about 2.8-fold lower than that of the molecule before.

Turning to `CC(C)(C)c1nc(C23CCC(CN(C(=O)C45CC(F)(C4)C5)c4cc(-c5cnn(C(F)F)c5)ccn4)(CC2)CC3)no1` [Example 212, N-((4-(5-(tert-butyl)-1,2,4-oxadiazol-3-yl)bicyclo[2.2.2]octan-1-yl)methyl)-N-(4-(1-(difluoromethyl)-1H-pyrazol-4-yl)pyridin-2-yl)-3-fluorobicyclo[1.1.1]pentane-1-carboxamide], the EC50 worked out at 11 nM.
